Consider 2 molecules from patent US8394788B2, “Phenylsulfoxyoxazole compound inhibitors of urea transporters” (The Regents of the University of California, priority 2006, dated 2013).

Bounds are passed on as bounds.

Test [1] relates to RBCs from wild-type mice. The experiment in a line: Osmotic water permeability, RBCs from wild-type mice (stopped-flow). Format: cell-based, mouse. The settings on record: 10° C., 250-mM sucrose gradient. The protocol:
(§1) RBC urea and water permeabilities were assayed by stopped-flow light scattering using a Hi-Tech Sf-51 instrument (Wiltshire, UK). For measurement of urea permeability, dilutions of whole blood (human or mouse; see Example 1) in PBS (hematocrit: approximately 0.5%) were incubated with test compounds for 5 min and then subjected to a 250-mM inwardly directed gradient of urea. After an initial osmotic shrinking phase, the kinetics of increasing cell volume caused by urea influx were measured as the time-course of 90° scattered light intensity at 530 nm, with increasing cell volume resulting in reduced scattered light intensity. As a positive control, 0.7 mM phloretin was added to the RBC suspension prior to stopped-flow experiments. Measurements of water permeability were carried out similarly, with sucrose (cell-impermeant) used instead of urea to establish a 250-mM osmotic gradient. As a positive control, HgCl2 (0.3 mM) was added to the RBC suspension prior to stopped-flow measurements. Osmotic water permeability coefficients (Pf) were computed from light scattering data as described (van Hoek et al., J Biol. Chem. 267:18267-69 (1992)).
This example describes chemical knock-out of UT-B by UT-B inhibitors in RBCs and the effect on UT-B-facilitated water transport. […] Osmotic water permeability was measured by stopped-flow light scattering in RBCs from wild-type and AQP1-null mice as shown in FIG. 8A. […] AQP1-null RBCs had greater than 5-fold reduced Pf compared to wild-type RBCs.

For test [2], the target named is T1, mouse UT-B (Mus musculus, UniProt Q8VHL0).
T1 construct: the indicator cells are red blood cells that endogenously express the UT-B urea transporter; endogenous in cells; host or cells: mouse red blood cells (CD1 background; wild-type for A4, AQP1-null for A10)
T1 sequence (Q8VHL0 1-384): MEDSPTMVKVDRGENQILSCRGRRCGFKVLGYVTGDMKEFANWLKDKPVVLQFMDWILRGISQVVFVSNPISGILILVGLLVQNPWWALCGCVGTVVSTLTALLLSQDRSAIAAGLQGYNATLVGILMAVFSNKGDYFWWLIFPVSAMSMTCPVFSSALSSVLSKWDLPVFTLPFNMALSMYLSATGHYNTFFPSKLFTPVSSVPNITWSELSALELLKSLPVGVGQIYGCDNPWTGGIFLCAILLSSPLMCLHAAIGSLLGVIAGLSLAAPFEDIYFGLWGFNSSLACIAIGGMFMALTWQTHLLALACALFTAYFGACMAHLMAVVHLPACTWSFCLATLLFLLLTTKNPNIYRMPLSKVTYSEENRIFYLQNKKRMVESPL
The experiment in a line: Stopped-flow light scattering, mouse RBCs (N-methylurea gradient). It is filed as cell-based. On the procedure:
as §1, with “(1992)). […]” for “(1992)).”

For test [3], the target named is T2, UT-B (Homo sapiens, UniProt Q13336).
T2 sequence (Q13336 1-389): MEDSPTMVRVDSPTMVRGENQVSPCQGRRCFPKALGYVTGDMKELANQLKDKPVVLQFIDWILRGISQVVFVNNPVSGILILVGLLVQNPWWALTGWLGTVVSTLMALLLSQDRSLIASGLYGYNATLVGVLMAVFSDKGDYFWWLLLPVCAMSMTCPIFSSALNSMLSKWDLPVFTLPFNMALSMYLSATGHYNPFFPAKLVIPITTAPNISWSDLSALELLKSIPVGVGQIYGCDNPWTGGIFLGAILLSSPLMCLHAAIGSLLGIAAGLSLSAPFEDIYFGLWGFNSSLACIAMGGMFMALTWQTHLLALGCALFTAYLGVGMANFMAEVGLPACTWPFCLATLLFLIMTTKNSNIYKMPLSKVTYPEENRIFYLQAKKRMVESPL
Put plainly: Stopped-flow light scattering, urea permeability of human RBCs. It is filed as cell-based. Set-up: a red blood cell (i.e., erythrocyte), which endogenously expresses the urea transporter UT-B; endogenous in cells; host or cells: human red blood cells (whole blood, single donor). The note with it: for inhibition of urea transport, inhibitor only in urea-containing solution (sidedness): external exposure at time of stopped-flow, 0.1 μM ureainh-101, 0.2 μM ureainh-302; for reversibility of inhibition after washing RBCs: washed after 10 min incubation. On the procedure: as §1
After repeating the 96-well plate RBC lysis assay to confirm compound activity (see Example 2), bona fide urea transport inhibition was determined by stopped-flow light scattering from the kinetics of urea influx (RBC swelling) in response to an inwardly directed urea gradient. Rapid mixing of an RBC suspension with a hyperosmolar solution containing excess 250 mM urea produced rapid cell shrinking due to osmotic water efflux, followed by cell swelling as urea (and water) influx occurred.
To determine EC50 values for urea transport inhibition directly, RBC urea transport was measured by stopped-flow light scattering using a non-saturating concentration of extracellular urea (to avoid possible competition effects). EC50 for inhibition of RBC urea transport was determined independently by comparing stopped-flow light scattering curves to a model of cell shrinking-swelling.
For stopped-flow experiments, a 100-mM gradient of urea (for human RBCs) or N-methylurea (for mouse RBCs) was used to minimize competition effects (apparent urea and N-methylurea affinities at 23° C. are approximately 200 and approximately 100 mM, respectively) (Mayrand et al., J Gen Physiol. 81:221-37 (1983)). N-methylurea, with greater than 2-fold slower RBC permeability than urea, was used in mouse studies to better resolve overlapping water and urea transport kinetics. Dose-response data were also collected for human RBCs using a high concentration of 1 M urea to distinguish between competitive vs. non-competitive inhibitor binding.
The two coupled differential equations describing water efflux and solute influx in response to externally added urea or methylurea were numerically integrated using the forward Euler method (Δt=0.01 s) to reproduce the biphasic changes in cell volume observed experimentally. Computations that were performed using the smaller time step (Δt=0.001 s) gave similar results, confirming the adequacy of the 0.01 s time step. Water flux, Jv (in cm^3/s), across erythrocyte membranes is represented by the following equation: Jv=−Pf·S·vw·[(Ie−Ic(i))+(Ue−Uc(i))]; solute flux, Js (in mol/s), is represented by the following equation: Ps·S·(Ue−Uc(i)). Permeability coefficients (Pf and Ps) are expressed in units of cm/s, cell surface area (S) in cm^2, extracellular (e) and cellular (c) concentrations of impermeant (I) and urea/methylurea (U) solute in mol/cm^3, and vw is […]. Initial conditions were Ie=Ic(0)=2.9×10^−4 mol/cm^3, Ue=10^−4 mol/cm^3, and Uc(0)=0. […]

Test [4] deals with T3, UT-B (Mus musculus, UniProt Q8VHL0).
T3 construct: the indicator cells are red blood cells that endogenously express the UT-B urea transporter; endogenous in cells; host or cells: mouse red blood cells (CD1 background; wild-type for A4, AQP1-null for A10)
T3 sequence (Q8VHL0 1-384): T1 sequence (Q8VHL0 1-384)
Put plainly: Osmotic water permeability, AQP1-null mouse RBCs (UT-B-facilitated water transport). Format: cell-based. The settings on record: 10° C., 250-mM sucrose gradient. On the procedure: as §1, with “Osmotic water permeability coefficients (Pf) were computed from light scattering data as described (van Hoek et al., J Biol. Chem. 267:18267-69 (1992)).” left out
This example describes chemical knock-out of UT-B by UT-B inhibitors in RBCs and the effect on UT-B-facilitated water transport. […] Osmotic water permeability was measured by stopped-flow light scattering in RBCs from wild-type and AQP1-null mice as shown in FIG. 8A. […]

In general, inhibition refers to the relative decrease from the control value, in per cent. In the case of `NC(=O)CSc1oc(-c2ccccc2)nc1S(=O)(=O)c1ccc(Br)cc1` [ureainh-101, 2-(4-(4-bromophenylsulfonyl)-2-phenyloxazol-5-ylthio)acetamide], the “effect on water transport in RBCs from wild-type mice” value in test [1] is “little effect”. The “inhibitory potencies against mouse UT-B” value in test [2] is reported as “good inhibitory potencies”. Further, the inhibition at 0.1 µM in test [3] (10 min pre-incubation, 0.1 μM ureainh-101, 0.4 μM ureainh-302, read-out: transport inhibition after pre-incubation) is > 95%. Also, in test [3], the “inhibition of urea transport, inhibitor only in urea-containing solution (sidedness)” value is “did not inhibit urea transport” and the “reversibility of inhibition after washing RBCs” value was “fully reversible inhibition”. Besides, the “effect on water permeability in AQP1-null RBCs” value in test [4] is listed as “further inhibited water permeability”.
Take `Cc1ccc(Nc2nnc(-c3ccc(C(N)=O)cc3)c3ccccc23)cc1` [ureainh-302]: in test [1], the “effect on water transport in RBCs from wild-type mice” value is reported as “little effect”. Also, the “inhibitory potencies against mouse UT-B” value in test [2] is “good inhibitory potencies”. Besides, in test [3], the “inhibition of urea transport, inhibitor only in urea-containing solution (sidedness)” value is listed as “sizable effect” and the “reversibility of inhibition after washing RBCs” value is listed as “fully reversible inhibition”. Besides, the “concentration dependence of inhibition of urea permeability by externally added inhibitor” value in test [3] (externally added, 0.05-0.2 μM) was “concentration-dependent”. Also, the “effect on water permeability in AQP1-null RBCs” value in test [4] is on record as “further inhibited water permeability”.
